Results published in patent US6866861B1, “Method and composition for enhancing milk component concentrations” (Land O'Lakes, Inc., priority 1999, dated 2005).

Tests used:
cows [1] = test: Abomasal infusion of glycerol on an on-off-on schedule, total solids in milk (Example 6, FIG. 3); assay type: in vivo; conditions: 150 g/cow/day abomasal weeks 1-3 and 7-9, water weeks 4-6; average of two cows
Experimental: FIG. 3 is a graph of the concentration of total solids in milk versus time when abomasally infusing glycerol into cattle in accordance with the method of the present invention. To determine the weight percent total solids, wet basis, in a sample, the actual weight of total solids is determined by analyzing the sample in accordance with Method #925.23 (33.2.09) of Official Methods of Analysis, Association of Official Analytical Chemists (AOAC) (16th Ed., 1995). The weight percent total solids, wet basis, is then calculated by dividing the actual weight of total solids by the actual weight of the sample. In Example 6, two cows were abomasally infused at the rate of 150 grams per cow per day of glycerol on an on-off-on schedule to determine whether there were any benefits to intermittently providing glycerol to the abomasum of the cattle. For each cow, glycerol was abomasally infused during weeks 1-3 and weeks 7-9, while water, and not glycerol, was abomasally infused into each cow during weeks 4-6. The results of this test are graphically depicted in FIG. 3 as the concentration, expressed as weight percent, of total solids in the milk produced by the cattle during the test period.

cows [2] = test: Abomasal infusion of sorbitol in cows, milk component concentrations (Example 2); assay type: in vivo, cow; conditions: for Ash / Fat / Lactose / Total Solids / True Protein: 100 g/cow/day abomasal, average of 3 cows
Experimental: To determine the weight percent total solids, wet basis, in a sample, the actual weight of total solids is determined by analyzing the sample in accordance with Method #925.23 (33.2.09) of Official Methods of Analysis, Association of Official Analytical Chemists (AOAC) (16th Ed., 1995). The weight percent total solids, wet basis, is then calculated by dividing the actual weight of total solids by the actual weight of the sample. The weight percent of true protein, wet basis, for a particular sample is calculated after first determining the wet basis weight percent of total Kjeldahl nitrogen and the wet basis weight percent of non-protein nitrogen in the sample. The wet basis weight percent of total Kjeldahl nitrogen in the sample is determined using the method referenced above. The wet basis weight percent of non-protein nitrogen (NPN) in the sample is determined in accordance with Method #991.21 (33.2.12) of Official Methods of Analysis, Association of Official Analytical Chemists (AOAC) (16th Ed., 1995). The weight percent of true protein, wet basis, in the sample is then determined by subtracting the wet basis weight percent of non-protein nitrogen in the sample from the wet basis weight percent of total Kjeldahl nitrogen in the sample. To determine the weight percent lactose, wet basis, in a liquid sample, the weight of the liquid sample is first determined. The actual weight of lactose in the liquid sample may then be determined using analysis kit number 176-303, that is available from Boehringer-Mannheim of Indianapolis, Ind. in accordance with the procedural instructions included with analysis kit number 176-303. The weight percent lactose, wet basis, in the liquid sample is then calculated by dividing the actual weight of lactose in the liquid sample by the actual weight of the liquid sample. To determine the weight percent fat, wet basis, in a sample, the actual weight of fat in the sample is determined in accordance with Method #974.09 (33.7.18) of Official Methods of Analysis, Association of Official Analytical Chemists (AOAC) (16th Ed., 1995). The weight percent fat, wet basis, is then calculated by dividing the actual weight of fat in the sample by the actual weight of the sample. In this example, sorbitol was abomasally infused into three different cows at a rate of 100 grams of sorbitol per cow per day during a 14 day test period. The sorbitol rations were mixed with water to facilitate infusion. The rations provided to the cows during the period extending from day 0, prior to abomasal infusion of sorbitol, through day 14 of the test period were the same. The only difference in feeding of the cows between day 0 and days 1-14 of the test period were that during days 1-14 the cows were abomasally infused with the dosage of 100 grams of sorbitol per cow per day. Milk from the three cows was collected and analyzed prior to infusion (on day 0) and also was collected and analyzed on the third, seventh and fourteenth day of the test period. The results presented in Table 2 below for each milk component for each particular day are averages for the milk collected from the three different cows. The net change for the different milk components presented in Table 2 was calculated by averaging the results of days 3, 7 and 14 for a particular milk component and subtracting the results presented for day 0 for the particular milk component.

[3] = milk, average of days 3, 7, 14 minus day 0

OCC(O)CO [glycerol]
weight percent of total solids in the milk (FIG. 3, in words) (cows [1]): increased

OC[C@@H](O)[C@@H](O)[C@H](O)[C@@H](O)CO [sorbitol]
weight percent of fat, true protein, and total solids in the milk (conclusion in words) (cows [2]; abomasal infusion, 14 day test period): net increase
Ash (cows [2]; milk, Day 3): 0.73 Wt. %
Fat (cows [2]; milk, Day 3): 4.59 Wt %
Lactose (cows [2]; milk, Day 3): 4.62 Wt. %
Total Solids (cows [2]; milk, Day 3): 13.00 Wt. %
True Protein (cows [2]; milk, Day 3): 3.06 Wt. %
Ash (cows [2]; milk, Day 7): 0.73 Wt. %
Fat (cows [2]; milk, Day 7): 3.78 Wt %
Lactose (cows [2]; milk, Day 7): 4.87 Wt. %
Total Solids (cows [2]; milk, Day 7): 12.40 Wt. %
True Protein (cows [2]; milk, Day 7): 3.01 Wt. %
Ash (cows [2]; milk, Day 14): 0.71 Wt. %
Fat (cows [2]; milk, Day 14): 4.33 Wt %
Lactose (cows [2]; milk, Day 14): 4.75 Wt. %
Total Solids (cows [2]; milk, Day 14): 12.88 Wt. %
True Protein (cows [2]; milk, Day 14): 3.09 Wt. %
Ash, Net Change (cows [2]; [3]): no net change
Fat, Net Change (cows [2]; [3]): +0.67 Wt %
Lactose, Net Change (cows [2]; [3]): −0.13 Wt. %
Total Solids, Net Change (cows [2]; [3]): +0.63 Wt. %
True Protein, Net Change (cows [2]; [3]): +0.08 Wt. %
